Experimental data published in publication PMC9098890 (European Journal of Medicinal Chemistry, 2022).

Columns and labels:
SARS-CoV-2 (WIV04) = assay: Anti-viral activity assay; type: cell-based
SARS-CoV-2 3CL^Pro = SARS-CoV-2 3CL^Pro (Severe acute respiratory syndrome coronavirus 2, UniProt P0DTD1); assay: Enzymatic inhibitory activity assay; type: biochemical; settings: IC50 compared with positive control 1

Compound	reduction of SARS-CoV-2 viral RNA (SARS-CoV-2 (WIV04))	also measured
CC(C)C[C@H](NC(=O)/C=C/c1ccccc1)C(=O)N[C@H](C=O)C[C@@H]1CCNC1=O [Compound 10b, (S)-2-cinnamamido-4-methyl-N-((S)-1-oxo-3-((S)-2-oxopyrrolidin-3-yl)propan-2-yl)pentanamide]	more than 2 logs	–
CCCC[C@H](NC(=O)/C=C/c1ccccc1)C(=O)N[C@H](C=O)C[C@@H]1CCNC1=O [Compound 10c, (S)-2-cinnamamido-N-((S)-1-oxo-3-((S)-2-oxopyrrolidin-3-yl)propan-2-yl)hexanamide]	more than 2 logs	–
CC(C)C[C@H](NC(=O)/C=C/c1ccccc1)C(=O)N[C@H](C=O)C[C@@H]1CCCNC1=O [Compound 10g, (S)-2-cinnamamido-4-methyl-N-((S)-1-oxo-3-((S)-2-oxopiperidin-3-yl)propan-2-yl)pentanamide]	more than 2 logs	–
CC(C)(C)[C@H](NC(=O)/C=C/c1ccccc1)C(=O)N[C@H](C=O)C[C@@H]1CCCNC1=O [Compound 10h, (S)-2-cinnamamido-3,3-dimethyl-N-((S)-1-oxo-3-((S)-2-oxopiperidin-3-yl)propan-2-yl)butanamide]	more than 2 logs	–
CC(C)C[C@H](NC(=O)[C@@H](NC(=O)/C=C/c1ccccc1)C(C)C)C(=O)N[C@H](C=O)C[C@@H]1CCCNC1=O [Compound 14c, (S)-2-((S)-2-cinnamamido-3-methylbutanamido)-4-methyl-N-((S)-1-oxo-3-((S)-2-oxopiperidin-3-yl)propan-2-yl)pentanamide]	–	antiviral activity against SARS-CoV-2 (in words) (SARS-CoV-2 (WIV04)): no antiviral activity
CC(C)C[C@H](NC(=O)[C@H](CC1CCCCC1)NC(=O)/C=C/c1ccccc1)C(=O)N[C@H](C=O)C[C@@H]1CCCNC1=O [Compound 14d, (S)-2-((S)-2-cinnamamido-3-cyclohexylpropanamido)-4-methyl-N-((S)-1-oxo-3-((S)-2-oxopiperidin-3-yl)propan-2-yl)pentanamide]	more than 2 logs	–
CC(C)C[C@H](NC(=O)[C@@H](NC(=O)c1ccc2ccccc2c1)C(C)C)C(=O)N[C@H](C=O)C[C@@H]1CCCNC1=O [Compound 17i, N-((S)-3-methyl-1-(((S)-4-methyl-1-oxo-1-(((S)-1-oxo-3-((S)-2-oxopiperidin-3-yl)propan-2-yl)amino)pentan-2-yl)amino)-1-oxobutan-2-yl)-2-naphthamide]	more than 2 logs	–
CC(C)C[C@H](NC(=O)[C@@H](NC(=O)c1ccc(Cl)cc1)C(C)C)C(=O)N[C@H](C=O)C[C@@H]1CCCNC1=O [Compound 17w, 4-chloro-N-((S)-3-methyl-1-(((S)-4-methyl-1-oxo-1-(((S)-1-oxo-3-((S)-2-oxopiperidin-3-yl)propan-2-yl)amino)pentan-2-yl)amino)-1-oxobutan-2-yl)benzamide]	–	increased inhibitory potency versus positive control 1 (SARS-CoV-2 3CL^Pro): 4 fold
